Results published in PubChem BioAssay (NCI).
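Five compound concentrations were applied to cells in 96-well plates for 48 hours; endpoints were derived by simple linear interpolation of the resulting dose-response curve. TGI: total growth inhibition.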

Columns and labels:
Assay in all cases: NCI-60 cell line screen, 48 h
A549 NSCLC = test system: A549 NSCLC
KM12 colon = test system: KM12 colon
SF-268 CNS = test system: SF-268 CNS
MDA-MB-231 breast = test system: MDA-MB-231 breast
EKVX NSCLC = test system: EKVX NSCLC
786-0 renal = test system: 786-0 renal
UO-31 renal = test system: UO-31 renal
OVCAR-3 ovarian = test system: OVCAR-3 ovarian
MDA-MB-435 = test system: MDA-MB-435
MDA-N = test system: MDA-N
HOP-92 NSCLC = test system: HOP-92 NSCLC

## CCCc1cc(=O)oc2c3c(c4c(c12)OC(C)(C)C=C4)O[C@@H](C)[C@H](C)C3=O
A549 NSCLC
  TGI: 24.5 µM
KM12 colon
  TGI: 27.9 µM
SF-268 CNS
  TGI: 45.2 µM
MDA-MB-231 breast
  TGI: 33.2 µM
EKVX NSCLC
  TGI: 24.6 µM
786-0 renal
  TGI: 38.8 µM
UO-31 renal
  TGI: 31.4 µM
OVCAR-3 ovarian
  TGI: 49.1 µM
MDA-MB-435
  TGI: 58.8 µM
MDA-N
  TGI: 36.4 µM

## CCCCn1c(C)c(C(=O)OCC)s/c1=N/Nc1nc2ccccc2nc1-c1ccccc1
A549 NSCLC
  TGI: > 100 µM
MDA-MB-231 breast
  TGI: > 100 µM
HOP-92 NSCLC
  TGI: > 100 µM
EKVX NSCLC
  TGI: > 100 µM
786-0 renal
  TGI: > 100 µM
OVCAR-3 ovarian
  TGI: > 100 µM
MDA-MB-435
  TGI: > 100 µM
MDA-N
  TGI: > 100 µM

## CC(C)C1(C)N=C(C(F)(F)F)c2cc(C(=O)C(F)(F)F)c3ccccc3c2N1 (stereo unspecified)
A549 NSCLC
  TGI: 23.5 µM
KM12 colon
  TGI: 12.7 µM
SF-268 CNS
  TGI: 13.7 µM
MDA-MB-231 breast
  TGI: 11.2 µM
EKVX NSCLC
  TGI: 18.4 µM
786-0 renal
  TGI: 15.8 µM
UO-31 renal
  TGI: 14.1 µM
OVCAR-3 ovarian
  TGI: 10.6 µM
MDA-MB-435
  TGI: 11.3 µM
MDA-N
  TGI: 13 µM

## O=[N+]([O-])c1cccc2nc3ccccc3c(NCCc3cccc[n+]3[O-])c12
A549 NSCLC
  TGI: < 0.0476 µM
KM12 colon
  TGI: 0.552 µM
SF-268 CNS
  TGI: 0.202 µM
MDA-MB-231 breast
  TGI: 0.0538 µM
HOP-92 NSCLC
  TGI: < 0.0507 µM
EKVX NSCLC
  TGI: 0.121 µM
786-0 renal
  TGI: 0.249 µM
OVCAR-3 ovarian
  TGI: 0.11 µM
MDA-MB-435
  TGI: < 0.0184 µM
MDA-N
  TGI: 0.0464 µM

## O=C1CN2Cc3cc(N4CCOCC4)ccc3N=C2N1
KM12 colon
  TGI: > 100 µM
MDA-MB-231 breast
  TGI: > 100 µM
HOP-92 NSCLC
  TGI: > 100 µM
UO-31 renal
  TGI: > 100 µM
OVCAR-3 ovarian
  TGI: > 100 µM
MDA-MB-435
  TGI: > 100 µM

## CCCCc1c2c(nc3c1CCCC3O)/C(=C/c1ccccc1)CCC2 (stereo unspecified)
A549 NSCLC
  TGI: > 100 µM
KM12 colon
  TGI: 36.8 µM
SF-268 CNS
  TGI: 85.3 µM
HOP-92 NSCLC
  TGI: > 100 µM
EKVX NSCLC
  TGI: 97.4 µM
786-0 renal
  TGI: 57 µM
UO-31 renal
  TGI: > 100 µM
OVCAR-3 ovarian
  TGI: 35.9 µM

## COC(OC)c1cccc2c1C(=O)CCC1(O)c3ccccc3C1C2 (stereo unspecified)
A549 NSCLC
  TGI: > 100 µM
KM12 colon
  TGI: > 100 µM
SF-268 CNS
  TGI: > 100 µM
EKVX NSCLC
  TGI: > 100 µM
786-0 renal
  TGI: > 100 µM
UO-31 renal
  TGI: > 100 µM
OVCAR-3 ovarian
  TGI: > 100 µM

## COc1ccc(C2C3C(=O)C=CC(=O)C3[C@@H]2C)cc1OC (stereo partly specified)
A549 NSCLC
  TGI: > 100 µM
KM12 colon
  TGI: > 100 µM
SF-268 CNS
  TGI: > 100 µM
HOP-92 NSCLC
  TGI: > 100 µM
EKVX NSCLC
  TGI: > 100 µM
786-0 renal
  TGI: > 100 µM
UO-31 renal
  TGI: > 100 µM
OVCAR-3 ovarian
  TGI: > 100 µM

## O=C1CCC[C@]2(CCC[C@@H](O)C2)N1
A549 NSCLC
  TGI: > 100 µM
KM12 colon
  TGI: > 100 µM
SF-268 CNS
  TGI: > 100 µM
MDA-MB-231 breast
  TGI: > 100 µM
EKVX NSCLC
  TGI: > 100 µM
786-0 renal
  TGI: > 100 µM
OVCAR-3 ovarian
  TGI: > 100 µM
MDA-N
  TGI: > 100 µM

## N#Cc1c(-c2ccco2)cc(-c2ccc(NCc3nc4ccccc4[nH]3)cc2)nc1N
A549 NSCLC
  TGI: 93.8 µM
KM12 colon
  TGI: 38 µM
SF-268 CNS
  TGI: > 100 µM
HOP-92 NSCLC
  TGI: 67.4 µM
786-0 renal
  TGI: 87.9 µM
UO-31 renal
  TGI: 58.7 µM
OVCAR-3 ovarian
  TGI: 41.8 µM

## CCCC/C=C/C1Cc2ccccc2CN1S(=O)(=O)c1ccc(C)cc1 (stereo unspecified)
A549 NSCLC
  TGI: 26.3 µM
KM12 colon
  TGI: 22.1 µM
SF-268 CNS
  TGI: 30 µM
HOP-92 NSCLC
  TGI: 8.82 µM
EKVX NSCLC
  TGI: > 100 µM
786-0 renal
  TGI: 25.1 µM
UO-31 renal
  TGI: 18.7 µM
OVCAR-3 ovarian
  TGI: 24.1 µM

## CC1CC[C@@]2(OC1)OC1C[C@H]3[C@@H]4C/C(=N\N(C)C)[C@@]5(O)CC(O)CC[C@]5(C)[C@H]4CC[C@]3(C)C1[C@@H]2C (stereo partly specified)
A549 NSCLC
  TGI: > 100 µM
KM12 colon
  TGI: > 100 µM
SF-268 CNS
  TGI: > 100 µM
MDA-MB-231 breast
  TGI: > 100 µM
HOP-92 NSCLC
  TGI: > 100 µM
786-0 renal
  TGI: > 100 µM
UO-31 renal
  TGI: > 100 µM
OVCAR-3 ovarian
  TGI: > 100 µM
MDA-MB-435
  TGI: > 100 µM
MDA-N
  TGI: 52.6 µM

## NC(=O)N1N=C2c3ccccc3CC[C@@H]2C1c1ccccc1 (stereo partly specified)
A549 NSCLC
  TGI: > 100 µM
KM12 colon
  TGI: > 100 µM
SF-268 CNS
  TGI: > 100 µM
EKVX NSCLC
  TGI: > 100 µM
786-0 renal
  TGI: > 100 µM
UO-31 renal
  TGI: > 100 µM
OVCAR-3 ovarian
  TGI: > 100 µM

## COC(=O)C1=C(C(=O)OC)C2(OC(C)=O)c3ccccc3-c3ccccc3C12 (stereo unspecified)
A549 NSCLC
  TGI: 31.9 µM
KM12 colon
  TGI: 26.8 µM
SF-268 CNS
  TGI: 22 µM
HOP-92 NSCLC
  TGI: 3.67 µM
EKVX NSCLC
  TGI: 24.1 µM
786-0 renal
  TGI: 8.26 µM
UO-31 renal
  TGI: 8.97 µM
OVCAR-3 ovarian
  TGI: 9.94 µM

## Cc1ccc(-c2c(C#N)c(S)n(NS(=O)(=O)c3ccc(C)cc3)c(=O)c2C#N)cc1
A549 NSCLC
  TGI: > 100 µM
KM12 colon
  TGI: 35.2 µM
MDA-MB-231 breast
  TGI: > 100 µM
HOP-92 NSCLC
  TGI: > 100 µM
EKVX NSCLC
  TGI: > 100 µM
786-0 renal
  TGI: > 100 µM
UO-31 renal
  TGI: 38.5 µM
OVCAR-3 ovarian
  TGI: > 100 µM
MDA-MB-435
  TGI: 52.8 µM
MDA-N
  TGI: > 100 µM

## CSc1nc(-c2cc3c(c(SC)n2)CCCCC3)cc2c1CCCCC2
A549 NSCLC
  TGI: > 100 µM
KM12 colon
  TGI: > 100 µM
SF-268 CNS
  TGI: > 100 µM
MDA-MB-231 breast
  TGI: > 100 µM
EKVX NSCLC
  TGI: > 100 µM
786-0 renal
  TGI: > 100 µM
UO-31 renal
  TGI: > 100 µM
OVCAR-3 ovarian
  TGI: > 100 µM
MDA-MB-435
  TGI: > 100 µM
MDA-N
  TGI: > 100 µM

## O=C1/C(=C\c2cccc(Oc3ccccc3)c2)S(=O)(=O)C(c2ccccc2)N1c1ccc(Cl)cc1 (stereo unspecified)
A549 NSCLC
  TGI: > 100 µM
KM12 colon
  TGI: > 100 µM
MDA-MB-231 breast
  TGI: 34.7 µM
HOP-92 NSCLC
  TGI: 30.8 µM
EKVX NSCLC
  TGI: 84.5 µM
786-0 renal
  TGI: 27 µM
UO-31 renal
  TGI: 26.8 µM
OVCAR-3 ovarian
  TGI: 32.7 µM
MDA-MB-435
  TGI: 25.4 µM
MDA-N
  TGI: 29 µM

## COc1ccc(N2C(=O)C3ON(C(C(N)=O)c4ccccc4)C(c4ccc(-c5ccccc5)cc4)C3C2=O)cc1 (stereo unspecified)
A549 NSCLC
  TGI: > 50 µM
KM12 colon
  TGI: > 50 µM
SF-268 CNS
  TGI: > 50 µM
MDA-MB-231 breast
  TGI: > 50 µM
EKVX NSCLC
  TGI: > 50 µM
786-0 renal
  TGI: > 50 µM
UO-31 renal
  TGI: > 50 µM
OVCAR-3 ovarian
  TGI: > 50 µM
MDA-MB-435
  TGI: > 50 µM

## COc1cc(C2c3cc4c(cc3OC(Nc3ccc(C(=O)O)cc3)C2C)OCO4)cc(OC)c1OC (stereo unspecified)
A549 NSCLC
  TGI: > 47.5 µM
KM12 colon
  TGI: 1.66 µM
SF-268 CNS
  TGI: > 39.1 µM
MDA-MB-231 breast
  TGI: 2.06 µM
HOP-92 NSCLC
  TGI: > 74.6 µM
EKVX NSCLC
  TGI: > 100 µM
786-0 renal
  TGI: > 100 µM
UO-31 renal
  TGI: 28 µM
MDA-MB-435
  TGI: 0.265 µM

## CSC(C1c2ccccc2N(C)C2=NC(=O)N(C)C(=O)C21Cl)S(=O)(=O)c1ccc(C)cc1 (stereo unspecified)
A549 NSCLC
  TGI: > 100 µM
KM12 colon
  TGI: > 100 µM
SF-268 CNS
  TGI: > 100 µM
HOP-92 NSCLC
  TGI: 59.9 µM
EKVX NSCLC
  TGI: > 100 µM
786-0 renal
  TGI: 33.2 µM
UO-31 renal
  TGI: > 100 µM
OVCAR-3 ovarian
  TGI: 43.3 µM

## C[C@H](Nc1c(O)c2c(c(O)c1Cl)C(=O)C=CC2=O)C(=O)Nc1ccc([N+](=O)[O-])cc1
A549 NSCLC
  TGI: 3.64 µM
KM12 colon
  TGI: 3.66 µM
SF-268 CNS
  TGI: 5.79 µM
MDA-MB-231 breast
  TGI: 4.22 µM
HOP-92 NSCLC
  TGI: 5.16 µM
EKVX NSCLC
  TGI: > 10 µM
786-0 renal
  TGI: 3.23 µM
OVCAR-3 ovarian
  TGI: 2.75 µM
MDA-MB-435
  TGI: 3.04 µM
MDA-N
  TGI: 6.67 µM

## Nc1nc(SCCNC(=O)CCc2ccc(O)cc2)nc2c1ncn2C1OC(CO)C(O)C1O (stereo unspecified)
A549 NSCLC
  TGI: > 203 µM
KM12 colon
  TGI: > 203 µM
SF-268 CNS
  TGI: > 203 µM
HOP-92 NSCLC
  TGI: > 203 µM
786-0 renal
  TGI: > 203 µM
UO-31 renal
  TGI: > 203 µM
OVCAR-3 ovarian
  TGI: > 203 µM

## Clc1ccc(SCCSCCCCCCCCCCSCCSc2ccc(Cl)cc2)cc1
A549 NSCLC
  TGI: > 100 µM
KM12 colon
  TGI: > 100 µM
SF-268 CNS
  TGI: > 100 µM
HOP-92 NSCLC
  TGI: > 100 µM
EKVX NSCLC
  TGI: > 100 µM
786-0 renal
  TGI: > 100 µM
UO-31 renal
  TGI: > 100 µM
OVCAR-3 ovarian
  TGI: > 100 µM
